Consider 1 compound from article PMC12114840, “Exploring the Anticancer Properties of 1,2,3-Triazole-Substituted Andrographolide Derivatives” (Pharmaceuticals, 2025).

For assay [1], the system named is CCD-18Co cells (non-tumorigenic colon). Description: Sulforhodamine B (SRB) antiproliferative assay, CCD-18Co. It counts as cell-based. The note with it: Homo sapiens, CCD-18Co non-tumorigenic, 48 h, mean ± SEM of four to six independent experiments. The protocol: (§1) The antiproliferative properties of andrographolide and all prepared derivatives (2–26) were evaluated against a panel of different cancer cell lines, including human pancreatic ductal adenocarcinoma (PANC-1), colorectal adenocarcinoma (HCT116), melanoma (A375), breast adenocarcinoma (MCF-7) and a non-tumorigenic colon (CCD-18Co) cell line using the sulforhodamine B assay.
(§2) Human breast adenocarcinoma MCF-7, pancreatic ductal adenocarcinoma PANC-1, melanoma A375, and non-tumorigenic colon CCD-18Co cell lines were purchased from ATCC (Rockville, MD, USA). Human colorectal adenocarcinoma HCT116 cells were kindly provided by B. Vogelstein (The Johns Hopkins Kimmel Cancer Center, Baltimore, MD, USA). Tumor cells were routinely cultured in RPMI-1640 medium with UltraGlutamine from Biowest (VWR, Carnaxide, Portugal) supplemented with 10% fetal bovine serum (FBS) from Biowest (VWR, Carnaxide, Portugal), except for the PANC-1 cells, which were grown in DMEM (4.5 g/L glucose) with stable L-glutamine and sodium pyruvate and supplemented with 10% FBS. The non-tumorigenic CCD-18Co cells were cultured in EMEM (Lonza, VWR, Carnaxide, Portugal), supplemented with 10% FBS. All cells were incubated at 37 °C in a humidified atmosphere of 5% CO2. Routine mycoplasma testing was performed using the MycoAlert™ PLUS mycoplasma detection kit (Lonza).
(§3) For the evaluation of the compound effect on cell proliferation, human cell lines were seeded in 96-well plates at a density of 5.0 × 10^3 (HCT116, MCF-7, PANC-1, A375, and CCD-18Co) cells per well, for 24 h. Cells were then treated with serial dilutions of the compound (ranging from 0.63 to 30 µM), for an additional 48 h incubation period. The growth inhibitory effects were assessed by SRB assay, as described in [58], and the half-maximal inhibitory concentration (IC50 values) were determined for each cell line using the GraphPad Prism software version 7.0 (La Jolla, CA, USA). Culture medium containing a maximum of 0.05% dimethyl sulfoxide (DMSO) was used as negative control.

Assay [2] relates to PANC-1 cells. Description: Drug combination assay with 5-fluorouracil (SRB, CompuSyn). It counts as cell-based, human. The note with it: PANC-1, 48 h.
Procedure: Using the CompuSyn software (version 1.0), a multiple drug effect analysis was performed for each combination, to determine combination index (CI) and dose-reduction index (DRI) values. CI values indicate the effect of combining multiple drugs as synergistic (CI < 1), additive (CI = 1), or antagonistic (CI > 1). DRI values represent the fold decrease in the dose of a drug needed when in combination to achieve the same efficacy as the drug alone. DRI values > 1 are favorable given the concern for toxicity when combining multiple drugs.
The effect on cell proliferation was analyzed by SRB assay. […] Synergistic interactions of drugs were indicated as CI < 1, antagonist interactions as CI > 1.1, and additive effects as 1 < CI < 1.1.
A further assay deals with cleaved PARP-1. Description: Western blot, cleaved PARP-1. In kind it is cell-based, human. The note with it: PANC-1, 3 and 6 μM, 48 h. From the text: To further investigate the mechanism of action of the triazole derivative 12, an apoptosis analysis was subsequently performed in PANC-1 cells. The early stages of apoptosis are characterized by the disruption of membrane asymmetry and the translocation of phosphatidylserine from the inner to the outer leaflet of the plasma membrane, which can be detected using Annexin V-FITC, a protein with high affinity for phosphatidylserine. In the later stages of apoptosis, the cell membrane loses its integrity, allowing propidium iodide (PI) to penetrate into the cell. Thus, PANC-1 cells treated with compound 12 at 3 and 6 μM for 48 h were analyzed by flow cytometry after Annexin V-FITC and PI staining (Figure 1B, bottom panel; and Figure 1D). This analysis can distinguish and quantify viable cells (annexin V−, PI−), early apoptotic cells (annexin V+, PI−), late apoptotic cells (annexin V+, PI+), and necrotic cells (annexin V−/PI+). […]
PANC-1 (1.5 × 10^5 cells/well) were seeded in six-well plates, allowed to adhere overnight, and treated with 3 µM and 6 µM of compound 12 for 48 h. Protein lysates were obtained in RIPA buffer with protease inhibitors (Sigma-Aldrich, Lisbon, Portugal) and quantified using Pierce® bicinchoninic acid (BCA) protein assay reagents (Thermo Fisher Scientific, Porto Salvo, Portugal). […]

Assay [3] has as its system HCT116 cells (colorectal adenocarcinoma). Description: Sulforhodamine B (SRB) antiproliferative assay, HCT116. The conditions noted are these: Homo sapiens, HCT-116, HCT116, 48 h, mean ± SEM of four to six independent experiments. In kind it is cell-based. The method, then:
as §1, §2, §3

In the next assay the test system is A375 cells (melanoma). The experiment in a line: Sulforhodamine B (SRB) antiproliferative assay, A375. It counts as cell-based. The conditions noted are these: Homo sapiens, A-375, A375, 48 h, mean ± SEM of four to six independent experiments. The method, then: as §1, §2, §3
Assay [4] deals with MCF-7 cells (breast adenocarcinoma). Description: Sulforhodamine B (SRB) antiproliferative assay, MCF-7. In kind it is cell-based. The note with it: Homo sapiens, MCF7, MCF-7, 48 h, mean ± SEM of four to six independent experiments. The protocol:
as §1, §2, §3

The test system of assay [5] is PANC-1 cells. Description: Cell cycle analysis by flow cytometry (propidium iodide). It counts as cell-based, human. The note with it: PANC-1, 3 μM and 6 μM, 48 h. The method, then:
To elucidate the antiproliferative activity of compound 12, cell cycle analysis was performed in the PANC-1 cancer cell line. The cell cycle is a highly controlled process where cellular DNA is replicated and then equally partitioned in two daughter cells. The cell cycle is composed of two distinct phases: the interphase, where the cell grows and undergoes three distinct periods—the G1 (pre-DNA synthesis), S (DNA synthesis), and G2 (pre-division) phases—and mitosis, where cell undergoes division. The newly formed daughter cells then enter the preparatory phases of interphase, and start the G0 phase (quiescence). […] Thus, PANC-1 cells were treated with compound 12 at 3 and 6 µM for 48 h and then analyzed by flow cytometry (Figure 1B,C).
The analyses were performed as described in the literature. In particular, 1.5 × 10^5 PANC-1 cells/well were seeded in 6-well plates and allowed to adhere overnight, followed by treatment with 3 µM and 6 µM of compound 12 for 48 h. For cell cycle analysis, cells were stained with propidium iodide (Sigma-Aldrich) and subjected to flow cytometry. Cell cycle phases were identified and quantified using the FlowJo X 10.0.7 software (Treestar, Ashland, OR, USA). For apoptosis analysis, cells were stained using the Annexin V-FITC Apoptosis Detection Kit I from BD Biosciences (Enzifarma, Porto, Portugal), according to the manufacturer’s instructions. […]

Consider `C=C1CC[C@@H]2[C@](C)(COC(C)=O)[C@H](OC(C)=O)CC[C@@]2(C)[C@@H]1C[C@H](C1=CCOC1=O)n1cc(-c2ccc(Br)cc2)nn1` [Compound 12, (12R)-4-bromophenyl-1,2,3-triazole-3,19-diacetoxy-14-deoxy-andrographolide], for which the IC50 in assay [1] was found to be 9.6 ± 2.3 µM; in assay [3], 1.7 ± 0.2 µM; with A375 cells (melanoma), 1.7 µM; in assay [4], 6.8 ± 0.3 µM. The “combination index (CI)” value was 0.87 in the assay on PANC-1 cells [2] (5-FU 3.75 µM + 1.35 µM of compound 12) and 0.90 with PANC-1 cells [2] (5-FU 7.5 µM + 1.35 µM of compound 12). Also, the “levels of cleaved PARP-1” value in the assay with cleaved PARP-1 was “significant increase in the levels of cleaved PARP-1”. The “G2/M population compared to the control” value in the assay on PANC-1 cells [5] is reported as “significant increase in the G2/M population”.
